From patent US20120015907A1, “Furopyridine compounds and uses thereof” (NOVARTIS AG, priority 2010, published 2012)

How the values were obtained:
HCV polymerase = molecular target: T1, HCV polymerase (Hepatitis C virus genotype 1b, UniProt Q9WMX2); test: biochemical; details: polymerase assay of Biological Example 1; read-out: NS5B polymerase IC50
T1 construct: (His)6 (C)

[1] = test system: HCV replicon I389luc-ubi-neo/NS3-3'/ET in ET (Huh-lucubineo-ET) cells; test: Replicon assay (Biological Example 2), luciferase read-out; format: cell-based; details: Hepatitis C virus, luciferase activity 48 hours after compound addition
Procedure: A cell line, ET (Huh-lucubineo-ET) is used for screening of compounds for inhibiting HCV RNA dependent RNA polymerase. The ET cell line is stably transfected with RNA transcripts harboring a I389luc-ubi-neo/NS3-3′/ET; replicon with firefly luciferase-ubiquitin-neomycin phosphotransferase fusion protein and EMCV-IRES driven NS3-5B polyprotein containing the cell culture adaptive mutations (E1202G; […]; K1846T) (Krieger at al, 2001 and unpublished). The ET cells are grown in DMEM (Dulbeco's Modified Eagle's Medium), supplemented with 10% fetal calf serum, 2 mM Glutamine, Penicillin (100 IU/mL)/Streptomycin (100 μg/mL), 1× nonessential amino acids, and 250 μg/mL G418 (“Geneticin”). Reagents are all available through Life Technologies (Bethesda, Md.). The cells are plated at 0.5-1.0×10^4 cells/well in the 96 well plates and incubated for 24 hrs before adding test compound. The compounds are added to the cells to achieve a final concentration of 0.1 nM to 50 μM and a final DMSO (dimethylsulfoxide) concentration of 0.5%. Luciferase activity is measured 48 hours later by adding a lysis buffer and the substrate (Catalog number Glo-lysis buffer E2661 and Bright-Glo luciferase system E2620 Promega, Madison, Wis.). Cells should not be too confluent during the assay. Percent inhibition of replication data is plotted relative to no compound control. To determine the EC50 (effective concentration at which 50% of the maximum inhibition is observed), a 10 point, 3-fold serial dilution for each compound is used, which spans a concentration range of 1000 fold. EC50 values were calculated by fitting % inhibition at each concentration to the following equation:
% inhibition=100%/[(EC50/[I])^b+1]
where b is Hill's coefficient.

| Structure (SMILES) | IC50 (HCV polymerase) | IC50 [1] |
| --- | --- | --- |
| CNC(=O)c1c(-c2ccc(C)cc2)oc2nc(N(C)S(C)(=O)=O)c(C3CC3)cc12 [Example 2.93, 5-cyclopropyl-N-methyl-6-(N-methylmethylsulfonamido)-2-p-tolylfuro[2,3-b]pyridine-3-carboxamide] | 4 nM | ≤ 100 nM |
| CCc1cc2c(C(=O)NC)c(-c3ccc(F)cc3)oc2nc1N(CCCCN1CCC[C@H]1C(=O)O)S(C)(=O)=O [Example 23.98, (S)-1-(4-(N-(5-ethyl-2-(4-fluorophenyl)-3-(methylcarbamoyl)furo[2,3-b]pyridin-6-yl)methylsulfonamido)butyl) pyrrolidine-2-carboxylic acid] | 166 nM | ≥ 5000 nM |
| CCc1cc2c(C(=O)NC)c(-c3ccc(F)cc3)oc2nc1N(C)S(C)(=O)=O [Example 6, 5-Ethyl-2-(4-fluoro-phenyl)-6-(methanesulfonyl-methyl-amino)-furo[2,3-b]pyridine-3-carboxylic acid methylamide] | 20 nM | ≤ 100 nM |
| CNC(=O)c1c(-c2ccc(C3CC3)cc2)oc2nc(N(CCCCC(=O)O)S(C)(=O)=O)c(C3CC3)cc12 [Example 27.7, 5-(N-(5-cyclopropyl-2-(4-cyclopropylphenyl)-3-(methylcarbamoyl)furo[2,3-b]pyridin-6-yl)methylsulfonamido) pentanoic acid] | 1 nM | ≤ 100 nM |
| C=CCCN(CCCN(c1nc2oc(-c3ccc(F)cc3)c(C(=O)NC)c2cc1I)S(C)(=O)=O)S(C)(=O)=O [Example 23.994, 6-(N-(3-(N-(but-3-enyl)methylsulfonamido)propyl)methylsulfonamido)-2-(4-fluorophenyl)-5-iodo-N-methylfuro[2,3-b]pyridine-3-carboxamide] | 57 nM | ≤ 100 nM |
| CNC(=O)c1c(-c2ccc(F)cc2)oc2nc(N(CCCCC(=O)O)S(C)(=O)=O)c(I)cc12 [Example 19, 5-{[2-(4-Fluoro-phenyl)-5-iodo-3-methylcarbamoyl-furo[2,3-b]pyridin-6-yl]-methanesulfonyl-amino}-pentanoic acid] | 9 nM | ≥ 5000 nM |
| CNC(=O)c1c(-c2ccc(F)cc2)oc2nc(N(CCCCCS(C)(=O)=O)S(C)(=O)=O)c(C3CC3)cc12 [Example 26.2, 5-cyclopropyl-2-(4-fluorophenyl)-N-methyl-6-(N-(5-(methylsulfonyl)pentyl)methylsulfonamido) furo[2,3-b]pyridine-3-carboxamide] | 4 nM | ≤ 100 nM |
| CNC(=O)c1c(-c2ccc(Oc3ccc(F)cc3)cc2)oc2nc(N(CCCCC(=O)O)S(C)(=O)=O)c(C3CC3)cc12 [Example 27.2, 5-(N-(5-cyclopropyl-2-(4-(4-fluorophenoxy)phenyl)-3-(methylcarbamoyl)furo[2,3-b]pyridin-6-yl)methylsulfonamido) pentanoic acid] | 1 nM | ≤ 100 nM |
| CNC(=O)c1c(-c2ccc(C)cc2)oc2nc(N(CCCC(C)(C)C(=O)O)S(C)(=O)=O)c(C3CC3)cc12 [Example 24, 5-[(5-Cyclopropyl-3-methylcarbamoyl-2-p-tolyl-furo[2,3-b]pyridin-6-yl)-methanesulfonyl-amino]-2,2-dimethyl-pentanoic acid] | 1 nM | ≤ 100 nM |
| CCc1cc2c(C(=O)NC)c(-c3ccc(F)cc3)oc2nc1N(CCCC1CCCS1(=O)=O)S(C)(=O)=O (single isomer, unassigned) [Example 22.991, 6-{[3-(1,1-Dioxo-tetrahydro-1lambdathiophen-2-yl)-propyl]-methanesulfonyl-amino}-5-ethyl-2-(4-fluoro-phenyl)-furo[2,3-b]pyridine-3-carboxylic acid methylamide] | 7 nM | ≤ 100 nM |
| C=Cc1cc2c(C(=O)NC)c(-c3ccc(F)cc3)oc2nc1N(CCCC(=O)OC)S(C)(=O)=O [Example 24.2, methyl 4-(N-(2-(4-fluorophenyl)-3-(methylcarbamoyl)-5-vinylfuro[2,3-b]pyridin-6-yl)methylsulfonamido) butanoate] | 42 nM | ≤ 100 nM |
